Test results taken from ChEMBL document CHEMBL1133449 (J Med Chem, 2000).

Legend:
Acetylcholinesterase [1] = target: T1, Acetylcholinesterase (Bos taurus, UniProt P23795)
T1 sequence (P23795 whole entry): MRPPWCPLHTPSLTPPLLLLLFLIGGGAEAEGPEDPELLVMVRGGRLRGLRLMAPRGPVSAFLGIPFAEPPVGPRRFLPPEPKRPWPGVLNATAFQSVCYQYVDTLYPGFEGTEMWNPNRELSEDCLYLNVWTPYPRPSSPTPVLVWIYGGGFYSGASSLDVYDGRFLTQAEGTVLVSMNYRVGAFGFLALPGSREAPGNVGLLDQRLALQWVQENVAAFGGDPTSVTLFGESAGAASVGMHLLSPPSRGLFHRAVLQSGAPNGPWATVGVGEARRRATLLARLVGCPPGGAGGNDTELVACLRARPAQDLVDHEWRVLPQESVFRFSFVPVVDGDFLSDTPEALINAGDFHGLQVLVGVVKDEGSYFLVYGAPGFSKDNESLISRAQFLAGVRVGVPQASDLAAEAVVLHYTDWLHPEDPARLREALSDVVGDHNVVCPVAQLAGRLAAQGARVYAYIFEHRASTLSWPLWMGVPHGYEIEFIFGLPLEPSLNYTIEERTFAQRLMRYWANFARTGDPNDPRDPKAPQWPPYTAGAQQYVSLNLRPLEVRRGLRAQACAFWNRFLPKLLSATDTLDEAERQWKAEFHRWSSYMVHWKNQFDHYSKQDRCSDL
Description: Compound was evaluated for the inhibition of acetylcholinesterase of bovine erythrocytes

Cholinesterase = Cholinesterase (Homo sapiens, UniProt P06276)
Chain of Cholinesterase (P06276 whole entry): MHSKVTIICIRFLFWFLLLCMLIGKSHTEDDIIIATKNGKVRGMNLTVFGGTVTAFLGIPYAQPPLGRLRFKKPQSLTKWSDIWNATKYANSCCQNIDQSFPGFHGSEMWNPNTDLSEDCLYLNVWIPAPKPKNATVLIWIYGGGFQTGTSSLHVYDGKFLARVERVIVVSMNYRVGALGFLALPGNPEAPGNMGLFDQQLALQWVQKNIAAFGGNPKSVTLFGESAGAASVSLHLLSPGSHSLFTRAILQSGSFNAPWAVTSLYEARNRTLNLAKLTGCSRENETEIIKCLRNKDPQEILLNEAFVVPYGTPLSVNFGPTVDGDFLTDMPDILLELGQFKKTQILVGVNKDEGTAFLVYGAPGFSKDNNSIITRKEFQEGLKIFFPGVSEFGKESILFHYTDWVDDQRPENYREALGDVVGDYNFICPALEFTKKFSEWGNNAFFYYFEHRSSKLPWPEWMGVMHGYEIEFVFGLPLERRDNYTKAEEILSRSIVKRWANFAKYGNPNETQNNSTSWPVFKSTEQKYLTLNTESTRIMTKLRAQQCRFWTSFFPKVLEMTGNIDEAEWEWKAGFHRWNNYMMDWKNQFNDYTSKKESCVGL
Description: Inhibition of butyrylcholinesterase (BChE) in human serum

Acetylcholinesterase [2] = target: Acetylcholinesterase (Homo sapiens, UniProt P22303)
Chain of Acetylcholinesterase (Homo sapiens, UniProt P22303) (P22303 whole entry): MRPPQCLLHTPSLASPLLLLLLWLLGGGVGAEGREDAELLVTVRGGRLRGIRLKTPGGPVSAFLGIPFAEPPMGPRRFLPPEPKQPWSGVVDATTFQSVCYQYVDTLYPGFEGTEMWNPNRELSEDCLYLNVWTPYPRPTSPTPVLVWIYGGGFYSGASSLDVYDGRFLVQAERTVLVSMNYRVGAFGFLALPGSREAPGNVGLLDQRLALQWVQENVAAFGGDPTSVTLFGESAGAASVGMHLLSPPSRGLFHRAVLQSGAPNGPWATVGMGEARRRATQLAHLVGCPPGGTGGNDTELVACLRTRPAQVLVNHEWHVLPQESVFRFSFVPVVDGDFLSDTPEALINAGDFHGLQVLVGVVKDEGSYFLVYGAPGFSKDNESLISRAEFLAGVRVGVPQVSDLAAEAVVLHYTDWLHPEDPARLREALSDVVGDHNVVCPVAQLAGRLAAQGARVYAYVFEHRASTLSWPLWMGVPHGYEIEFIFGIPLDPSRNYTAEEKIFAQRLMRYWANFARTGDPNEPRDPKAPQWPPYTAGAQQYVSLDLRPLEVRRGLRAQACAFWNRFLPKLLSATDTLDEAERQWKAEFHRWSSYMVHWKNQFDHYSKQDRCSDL
Description: Inhibition of acetylcholinesterase isolated from Human erythrocytes.

Acetylcholinesterase [3] = target: T1, Acetylcholinesterase; remark: listed apart in the source
Description: Compound was evaluated for the inhibition of acetylcholinesterase activity from bovine erythrocytes after 0 minutes of incubation

Acetylcholinesterase [4] = target: T1, Acetylcholinesterase; remark: listed apart in the source
[5] = target: Cholinesterases; ACHE & BCHE (Homo sapiens) (UniProt P06276+P22303); test: Ratio between IC50 of human BChE and human AChE; assay type: protein assay
Chain of Cholinesterases; ACHE & BCHE (Homo sapiens) (P06276 whole entry, looked up): as the sequence (P06276 whole entry) above
Chain of Cholinesterases; ACHE & BCHE (Homo sapiens) (P22303 whole entry, looked up): as the sequence (P22303 whole entry) above

[6] = Compound was evaluated for the antagonism index at 1 uM; assay type: functional
[7] = Compound was evaluated for the antagonism index 10 uM; NR ismNo reversion; assay type: functional
[8] = Compound was evaluated for the antagonism index 10 uM; NR is No Reversion.; assay type: functional

Row | SMILES | IC50 (Acetylcholinesterase [1]) | IC50 (Cholinesterase) | IC50 (Acetylcholinesterase [2]) | further results
1 | CCC1=CC2Cc3nc4cc(Cl)ccc4c(N)c3[C@@H](C1)C2 (mixture of isomers; (+)) [HUPRINE X] | 402 nM | 58.3 nM | 23.1 nM | IC50 (Acetylcholinesterase [3]): 240 nM; IC50 (Acetylcholinesterase [4]): 350 nM
2 | CC1=CC2Cc3nc4cc(F)cc(F)c4c(N)c3C(C1)C2 (stereo not drawn) | – | 963 nM | 2.2 nM | Ratio [5]: 438
3 | CCC1=CC2Cc3nc4cc(Cl)ccc4c(N)c3[C@@H](C1)C2 (stereo in doubt) [HUPRINE X] | 2.77 nM | 15.8 nM | 0.75 nM | IC50 (Acetylcholinesterase [3]): 3.34 nM; IC50 (Acetylcholinesterase [4]): 0.23 nM
4 | CC1=CC2Cc3nc4cc(Cl)ccc4c(N)c3C(C1)C2 (racemic; (+)) | – | – | – | inhibition [6]: 22.1%
5 | CCC1=CC2Cc3nc4cccc(Cl)c4c(N)c3C(C1)C2 (stereo not drawn) | – | 331 nM | 11.7 nM | –
6 | CCC1=CC2Cc3nc4cc(Cl)cc(Cl)c4c(N)c3C(C1)C2 (stereo not drawn) | 39.6 nM | 1210 nM | 1.39 nM | –
7 | CC1=C[C@@H]2Cc3nc4cc(F)ccc4c(N)c3[C@H](C1)C2 | – | – | 4.58 nM | Ratio [5]: 43
8 | C/C=C1\[C@H]2C=C(C)C[C@]1(N)c1ccc(=O)[nH]c1C2 [HUPERZINE A] | – | > 10000 nM | – | –
9 | CC1=CC2Cc3nc4cccc(F)c4c(N)c3C(C1)C2 (stereo not drawn) | – | – | 35.4 nM | Ratio [5]: 15.3
10 | CCC1=CC2Cc3nc4cc(F)cc(F)c4c(N)c3C(C1)C2 (stereo not drawn) | 2.62 nM | 194 nM | 1.76 nM | –
11 | CC1=CC2Cc3nc4cc(Cl)ccc4c(N)c3C(C1)C2 (stereo in doubt) [HUPRINE Y] | 4.23 nM | 236 nM | – | IC50 (Acetylcholinesterase [3]): 3.1 nM; IC50 (Acetylcholinesterase [4]): 0.64 nM
12 | CCC1=CC2Cc3nc4cc(Cl)ccc4c(N)c3[C@@H](C1)C2 (mixture of isomers; (-)) [HUPRINE X] | 1.3 nM | 159 nM | 0.32 nM | IC50 (Acetylcholinesterase [3]): 2.31 nM; IC50 (Acetylcholinesterase [4]): 0.0674 nM
13 | CC1=CC2Cc3nc4cc(Cl)ccc4c(N)c3C(C1)C2 (racemic; (-)) [HUPRINE Y] | 1.15 nM | 247 nM | – | IC50 (Acetylcholinesterase [3]): 3.03 nM; IC50 (Acetylcholinesterase [4]): 0.0245 nM
14 | CCC1=CC2Cc3nc4cc(Cl)ccc4c(N)c3[C@@H](C1)C2 (mixture of isomers; (+)) | – | – | – | NR [7]: No reversion
15 | CCC1=CC2Cc3nc4cc(C)cc(C)c4c(N)c3C(C1)C2 (stereo not drawn) | 3.59 nM | 32.6 nM | 4.96 nM | Ratio [5]: 6.57
16 | CC1=CC2Cc3nc4cc(Cl)ccc4c(N)c3C(C1)C2 (racemic; (+)) [HUPRINE Y] | 65 nM | 153 nM | – | –
17 | CCC1=CC2Cc3nc4cc(C)ccc4c(N)c3C(C1)C2 (stereo not drawn) | – | – | – | NR [8]: No reversion
